Earlier results, collected in patent US20070178172A1, “Composition for reducing blood lipids” (MAXLUCK BIOTECHNOLOGY CORP., priority 2004, published 2007).

Tested on: obesity mouse
Details: Cefalu et al. 2002

chromium picolinate
effect on blood lipids: could reduce the blood lipids
